According to the NIST ThermoML archive (doi:10.1007/s10765-010-0773-1):

Experiment: xn = mol fraction of the nth substance listed
Conditions: 101 kPa, Liquid; for mass density: Vibrating tube method; for speed of sound: Pulse-echo method

BrCBr [dibromomethane] + CCCCCCC
Conditions | mass density [kg/m3] | speed of sound [m/s]
288.15 K, x1 = 0.1019 | 779.65 | –
288.15 K, x1 = 0.1838 | 861.49 | –
288.15 K, x1 = 0.2536 | 937.65 | –
288.15 K, x1 = 0.3055 | 998.83 | –
288.15 K, x1 = 0.4064 | 1130.32 | –
288.15 K, x1 = 0.5029 | 1274.13 | –
288.15 K, x1 = 0.6023 | 1444.97 | –
288.15 K, x1 = 0.6525 | 1541.56 | –
288.15 K, x1 = 0.7016 | 1644.24 | –
288.15 K, x1 = 0.8003 | 1878.69 | –
288.15 K, x1 = 0.8961 | 2149.52 | –
288.15 K, x1 = 1 | 2509.06 | –
292.87 K, x1 = 1 | – | 960.63
292.88 K, x1 = 0.9019 | – | 946.13
292.89 K, x1 = 0.1062 | – | 1104
292.89 K, x1 = 0.2032 | – | 1066.3
292.89 K, x1 = 0.304 | – | 1032.1
292.9 K, x1 = 0.405 | – | 1002.4
292.9 K, x1 = 0.4998 | – | 979.49
292.91 K, x1 = 0.7043 | – | 946.92
292.91 K, x1 = 0.8031 | – | 941.84
292.92 K, x1 = 0.6048 | – | 959.47
293.14 K, x1 = 0.2536 | 932.03 | –
293.14 K, x1 = 0.4064 | 1123.66 | –
293.14 K, x1 = 0.6023 | 1436.76 | –
293.14 K, x1 = 0.7016 | 1635.05 | –
293.15 K, x1 = 0.1019 | 774.91 | –
293.15 K, x1 = 0.1838 | 856.29 | –
293.15 K, x1 = 0.3055 | 992.87 | –
293.15 K, x1 = 0.5029 | 1266.74 | –
293.15 K, x1 = 0.6525 | 1532.85 | –
293.15 K, x1 = 0.8003 | 1868.4 | –
293.15 K, x1 = 0.8961 | 2138.01 | –
293.15 K, x1 = 1 | 2496.03 | –
298.14 K, x1 = 0.1838 | 851.06 | –
298.14 K, x1 = 0.2536 | 926.36 | –
298.14 K, x1 = 0.3055 | 986.88 | –
298.14 K, x1 = 0.6023 | 1428.45 | –
298.14 K, x1 = 0.7016 | 1625.79 | –
298.14 K, x1 = 0.8961 | 2126.46 | –
298.15 K, x1 = 0.1019 | 770.15 | –
298.15 K, x1 = 0.2032 | – | 1045.8
298.15 K, x1 = 0.4064 | 1116.96 | –
298.15 K, x1 = 0.5029 | 1259.28 | –
298.15 K, x1 = 0.6525 | 1524.09 | –
298.15 K, x1 = 0.8003 | 1858.05 | –
298.15 K, x1 = 0.9019 | – | 931.96
298.15 K, x1 = 1 | 2482.97 | 947.15
298.16 K, x1 = 0.1062 | – | 1082.4
298.16 K, x1 = 0.304 | – | 1012.7
298.17 K, x1 = 0.4998 | – | 962
298.17 K, x1 = 0.8031 | – | 926.99
298.18 K, x1 = 0.405 | – | 984.03
298.18 K, x1 = 0.7043 | – | 931.29
298.19 K, x1 = 0.6048 | – | 942.98
303.11 K, x1 = 1 | – | 934.52
303.13 K, x1 = 0.1062 | – | 1062.1
303.13 K, x1 = 0.2032 | – | 1026.6
303.13 K, x1 = 0.304 | – | 994.46
303.13 K, x1 = 0.9019 | – | 918.63
303.14 K, x1 = 0.6023 | 1420.11 | –
303.14 K, x1 = 0.8031 | – | 913
303.15 K, x1 = 0.1019 | 765.35 | –
303.15 K, x1 = 0.1838 | 845.79 | –
303.15 K, x1 = 0.2536 | 920.67 | –
303.15 K, x1 = 0.3055 | 980.85 | –
303.15 K, x1 = 0.405 | – | 966.75
303.15 K, x1 = 0.4064 | 1110.22 | –
303.15 K, x1 = 0.4998 | – | 945.56
303.15 K, x1 = 0.5029 | 1251.79 | –
303.15 K, x1 = 0.6525 | 1515.27 | –
303.15 K, x1 = 0.7016 | 1616.48 | –
303.15 K, x1 = 0.7043 | – | 916.56
303.15 K, x1 = 0.8003 | 1847.66 | –
303.15 K, x1 = 0.8961 | 2114.87 | –
303.15 K, x1 = 1 | 2469.88 | –
303.17 K, x1 = 0.6048 | – | 927.45
308.1 K, x1 = 0.2032 | – | 1007.5
308.1 K, x1 = 1 | – | 921.89
308.11 K, x1 = 0.9019 | – | 905.33
308.12 K, x1 = 0.1062 | – | 1041.9
308.12 K, x1 = 0.304 | – | 976.3
308.12 K, x1 = 0.4998 | – | 929.18
308.13 K, x1 = 0.405 | – | 949.39
308.13 K, x1 = 0.8031 | – | 899.01
308.14 K, x1 = 0.6048 | – | 911.94
308.14 K, x1 = 0.7043 | – | 901.84
308.15 K, x1 = 0.1019 | 760.52 | –
308.15 K, x1 = 0.1838 | 840.49 | –
308.15 K, x1 = 0.2536 | 914.94 | –
308.15 K, x1 = 0.3055 | 974.78 | –
308.15 K, x1 = 0.4064 | 1103.44 | –
308.15 K, x1 = 0.5029 | 1244.25 | –
308.15 K, x1 = 0.6023 | 1411.72 | –
308.15 K, x1 = 0.6525 | 1506.41 | –
308.15 K, x1 = 0.7016 | 1607.12 | –
308.15 K, x1 = 0.8003 | 1837.22 | –
308.15 K, x1 = 0.8961 | 2103.24 | –
308.15 K, x1 = 1 | 2456.76 | –
313.14 K, x1 = 0.1019 | 755.67 | –
313.14 K, x1 = 0.5029 | 1236.67 | –
313.14 K, x1 = 0.6525 | 1497.49 | –
313.15 K, x1 = 0.1838 | 835.16 | –
313.15 K, x1 = 0.2536 | 909.16 | –
313.15 K, x1 = 0.3055 | 968.68 | –
313.15 K, x1 = 0.4064 | 1096.62 | –
313.15 K, x1 = 0.6023 | 1403.28 | –
313.15 K, x1 = 0.7016 | 1597.72 | –
313.15 K, x1 = 0.8003 | 1826.75 | –
313.15 K, x1 = 0.8961 | 2091.58 | –
313.15 K, x1 = 1 | 2443.59 | –
313.27 K, x1 = 1 | – | 908.83
313.28 K, x1 = 0.2032 | – | 987.55
313.28 K, x1 = 0.9019 | – | 891.54
313.29 K, x1 = 0.1062 | – | 1021
313.3 K, x1 = 0.304 | – | 957.58
313.31 K, x1 = 0.405 | – | 931.52
313.31 K, x1 = 0.4998 | – | 912.23
313.31 K, x1 = 0.7043 | – | 886.55
313.31 K, x1 = 0.8031 | – | 884.49
313.32 K, x1 = 0.6048 | – | 895.85
318.15 K, x1 = 0.1019 | 750.77 | –
318.15 K, x1 = 0.1838 | 829.78 | –
318.15 K, x1 = 0.2536 | 903.35 | –
318.15 K, x1 = 0.3055 | 962.53 | –
318.15 K, x1 = 0.4064 | 1089.75 | –
318.15 K, x1 = 0.5029 | 1229.04 | –
318.15 K, x1 = 0.6023 | 1394.79 | –
318.15 K, x1 = 0.6525 | 1488.53 | –
318.15 K, x1 = 0.7016 | 1588.27 | –
318.15 K, x1 = 0.8003 | 1816.27 | –
318.15 K, x1 = 0.8961 | 2079.95 | –
318.15 K, x1 = 1 | 2430.37 | –
